The subject of test [1] is α–SMA protein in TGF–β1–induced NHLF myofibroblasts. The test can be described thus: MS/MS α–SMA, NHLF myofibroblast reversal assay. In kind it is cell-based, human. The note with it: Homo sapiens. As to the method:
Cell culture medium was removed and cells were lysed on ice by adding 5 μl / well of pre–cooled protein extraction buffer containing 10 mM Tris–HCl (pH 8.0), 6 M urea and 2 M thiourea and shaking on ice on a plate shaker at 600 rpm for 30 min.
Cell lysate was transferred to a 96–well polypropylene–PCR–plate. 15 μl / well denaturation buffer (6 M urea, 50 mM ammonium bicarbonate) and 2 μl / well of 50 mM TCEP were added and samples were denatured for 1 h at 60°C using the Veriti 96–well Fast Thermal Cycler System (Applied Biosystem) with a heated lid. Plates were allowed to cool to RT. Subsequently, 2 μl of 100 mM iodoacetamide were added per well to derivatize cysteine residues. Plates were then sealed and vortexed for 2 min in the dark and incubated for 30 min at 37°C in a thermal cycler with a heated lid. 90 μl of 50 mM ammonium bicarbonate pH 7.8 were added, followed by the addition of 10 μl of trypsin at 0.02 μg / ml. Samples were trypsin–digested overnight at 37°C in a thermal cycler with heated lid. […] Samples were desalted under vacuum using an Oasis HLB 96–well (30 μm particle size, 5 mg sorbent / well) reverse phase cartridge according to the manufacturer’s instructions and eluted with 170 μl of 90% acetonitrile, 0.1% formic acid. Samples were dried down with a flow of nitrogen at 40°C, left to cool to RT and re–suspended in 40 μl 5% acetonitrile, 0.1% formic acid on a plate shaker set to 1400 rpm for 5 min. Plates were centrifuged at 4,000 rpm for 10 min and 2 times 12 μl / well of supernatant were transferred into separate 96–well plates (Greiner Bio–One), sealed and stored at 4°C until analyzed by MS / MS.
Surrogate tryptic peptides were chosen for detection of COL1 (COL1A1), α–SMA (ACTA) and tubulin (TBA1A1) and crude synthetic peptides were purchased from Thermo Fischer. After several rounds of optimization following standard workflows, […] (COL1 / COL1A1), […] (α–SMA / ACTA) and […] LC–MS / MS analysis was performed on a RapidFire™ RF360 system (Agilent Technologies) coupled to an API 5500 (ABSciex) with positive ion electrospray ionization. […] Detection was performed using multiple reaction monitoring (MRM) mode to monitor parent⟶product ion transitions (m / z). […] The source parameters were curtain gas (CUR) nitrogen: 20 psig; collision gas (CAD): 7 psig; ion source gas 1: 50.0 psig; ion source gas 2: 50.0 psig; ion spray voltage (IS): 5500 V; turbo heater temperature (TEM): 600°C; entrance potential (EP): 10V. Peak areas for COL1A1 and ACTA were normalized by dividing by TBA1A peak area.
To identify compounds with potential to revert differentiated myofibroblasts to fibroblasts the assay procedures were modified. After 24 h starvation, NHLF cells were stimulated with 5 ng / ml TGF–β1 for 24 h. At t = 24 h TGF–β1 was removed and either vehicle (DMSO) or compounds were added and incubated with the cells for a further 72 h.

Test [2] deals with α–SMA protein in NHLF cells. As to the kind of experiment: RapidFire MS/MS quantification of α–SMA (IPQA), standard assay. Format: cell-based, human. Put shortly:
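Primary normal human lung fibroblasts starved 32 h in 0.1% faf BSA medium, then treated with compound dilutions plus 5 ng/ml TGF-β1. Lysates denatured in urea/thiourea, reduced, alkylated, trypsin-digested; surrogate peptides quantified by RapidFire LC-MS/MS in MRM mode, peak areas normalized to tubulin peptide.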

[3] abbreviates: reversal assay: 24 h 5 ng/ml TGF–β1, washed, 72 h compound, normalized to tubulin, read-out: MS / MS α–SMA IC50.
[4] abbreviates: Homo sapiens, NHLF, 5 ng/ml TGF–β1, 48 h, representative experiment of supplementary figure, read-out: IC50 on α–SMA (curve of a single experiment).
[5] abbreviates: Homo sapiens, NHLF, 5 ng/ml TGF–β1, lysed 48 h after TGF–β1, normalized to tubulin, mean ± SD, read-out: MS / MS α–SMA IC50.
[6] abbreviates: NHLF pre–stimulated 24 h with 5 ng/ml TGF–β1, representative experiment, S7 Fig D, read-out: IC50, reversal of α–SMA (curve of a single experiment).

Read-outs that look alike come from different tables or passages of the source.

Regarding `CCCCC[C@H](O)/C=C/[C@H]1[C@H](O)CC(=O)[C@@H]1CCCCCCC(=O)O` [Alprostadil], the values for the IC50 in test [1] (setting [3]), in test [2] (setting [4]) and in test [2] (setting [5]) were 1 nM, 0.6 nM and 1.9 ± 1.6 nM, respectively. In test [2] (NHLF in the absence of TGF–β1), the “effect on basal α–SMA expression” value was “no effect”.

Take `C[C@]12CC[C@H](O)C[C@H]1CC[C@@H]1[C@@H]2C[C@@H](O)[C@]2(C)[C@@H](C3=CC(=O)OC3)CC[C@]12O` [Digoxigenin]: the IC50 in test [1] (setting [3]) came out at 48 nM; in test [2] (setting [5]), 38 ± 6 nM.

Regarding `Cc1cccc(-c2[nH]c(CNc3ccccc3F)nc2-c2ccc3ncnn3c2)n1` [EW–7197], the values for the IC50 in test [1] (setting [6]), in test [1] (setting [3]) and in test [2] (setting [5]) were 51 nM, 73 ± 31 nM and 51 ± 17 nM, respectively.

For the compound `CC(C)(C)c1ccc(CN(Cc2cccc(OCC(=O)O)c2)S(=O)(=O)c2cccnc2)cc1` [Evatanepag], the IC50 in test [1] (setting [3]) was 16 nM; in test [2] (setting [4]) it was 5.5 nM; in test [2] (setting [5]) it was 26 ± 29 nM.

With `O=C(CC1NCCCC1O)Cn1cnc2cc(Br)c(Cl)cc2c1=O` (centres unmarked) [Halofuginone], the IC50 in test [1] (setting [6]) came out at 40 nM; in test [1] (setting [3]), 102 ± 87 nM; in test [2] (setting [4]), 24 nM; in test [2] (setting [5]) it was 27 ± 4 nM.

In the case of `O=C1CC[C@H](/C=C/[C@@H](O)Cc2ccccc2)N1CCCCCCc1nn[nH]n1` [Merck–19a], the IC50 in test [2] (NHLF, 5 ng/ml TGF–β1, lysed 48 h after TGF–β1, normalized to tubulin, mean ± SD, read-out: MS / MS α–SMA IC50) amounted to 108 ± 87 nM.

As for `COC(=O)c1ccc2c(c1)NC(=O)/C2=C(\Nc1ccc(N(C)C(=O)CN2CCN(C)CC2)cc1)c1ccccc1` [Nintedanib], the IC50 was above 10000 nM in test [1] (setting [3]) and 500 ± 120 nM in test [2] (setting [5]).

Take `CCCCC[C@H](O)/C=C/[C@H]1[C@H](O)CC(=O)[C@@H]1C/C=C\CCCC(=O)O` [PGE2, prostaglandin E2]: the IC50 stood at 0.82 nM in test [1] (setting [6]), 0.8 nM in test [1] (setting [3]), 0.3 nM in test [2] (setting [4]) and 1.2 ± 1.2 nM in test [2] (setting [5]).

“TGF–β1: transforming growth factor–β1, stimulus of myofibroblast differentiation”: in test [2] (NHLF, 5 ng/mL TGF-β1), the “α-SMA / tubulin ratio” value is 0.51 ± 0.06. In test [2] (NHLF, 48 hours, MS/MS (n = 8)), the “EC50 of α–SMA protein increase” value stood at 0.07 ± 0.01 ng/mL. Also, the “increase of α–SMA protein” value in test [2] (NHLF, at 48 hours) is listed as “about 3 fold”.

For the origin of these results see article PMC6261607, “Novel high–throughput myofibroblast assays identify agonists with therapeutic potential in pulmonary fibrosis that act via EP2 and EP4 receptors” (PLoS ONE, 2018).
